Measured values reported in patent publication US11414377B2, “Modulator of metabotropic and ionotropic transmembrane receptors and use thereof” (IBD THERAPEUTICS LLC, priority 2018, dated 2022).

How the values were obtained:
[1] = molecular target: recombinant human delta opioid receptor (Homo sapiens, UniProt P41143); experiment: Delta-opioid receptor radioligand displacement ([3H]DADLE); type: binding
TRPM8 ion channel = molecular target: T1, TRPM8 ion channel (Homo sapiens, UniProt Q7Z2W7); experiment: Effect on activity of TRPM8 ion channel (Fluo-4 AM calcium); type: cell-based; settings: TRPM8 expressing HEK293 cells; Icilin 100 nM; intracellular calcium; read-out: IC50, blocker of TRPM8 ion channel
T1 construct: expressed in transfected cells; host or cells: HEK293 cells
Description: Compound I was dissolved in DMSO to a concentration of 100 mM; then the stock solution was diluted with DMSO to prepare a test solution with the concentration of substance equal to 50 μM. TRPM8 expressing HEK293 cells were used in the experiment. At the day of the experiment, the cells were incubated with a 4 μM of a solution of fluorescent indicator Fluo-4 AM. The cells after the preincubation with Icilin (100 nM), the known agonist of TRPM8 ion channel, were incubated with the test compound. The activity of receptors was determined by the intracellular calcium concentration using fluorescence spectroscopy (Behrendt, H. J. et al. (2004), Br. J. Pharmacol., 141: 737-745. FINAL).

female balb/c mice = experiment: Oxazolone-induced inflammatory bowel disease model; type: in vivo; settings: scored at 72 hours, control 2.00 ± 0.21
Description: The study of the activity of Compound I on the oxazolone-induced inflammatory bowel disease model (ulcerative Colitis and Crohn's disease model) was carried out by means of a standard procedure (Heller F., Fuss I. J., Nieuwenhuis E. E., Blumberg R. S., Strober W. Oxazolone colitis, a Th2 colitis model resembling ulcerative colitis, is mediated by IL-13-producing NK-T cells//Immunity. 2002. P. 629-638).
The study was carried out on female balb/c mice. A 3.5 F catheter was introduced into the large intestine to a depth of 3-4 cm. Then, 150 μl of 1% oxazolone solution in 50% ethanol was slowly introduced into the colon lumen, the catheter was slowly removed and the mouse was kept in a vertical position (upside down) for 60 seconds to avoid the introduced solution flowing-out. Experimental animals were returned to the cages and the animal was kept in the warm. Compound I was administered intragastrically, three times: 1 hour, 25 hours and 49 hours after the rectal administration of oxazolone. 72 hours later after the rectal administration of oxazolone, the macroscopic assessment of intestinal wall damage is carried out with the help of score scale: 0 points—no lesions, 1 point—hyperemia, no ulcers, 2 points—hyperemia and thickening of the intestinal wall, no ulcers, 3 points—one ulcer without thickening of the intestine wall, 4 points—2 or more of the site of ulceration or inflammation, 5 points—2 or more severe sites of ulcerations and inflammation, or one site of ulceration/inflammation affecting >1 cm in length of the intestine, 6-10 points—the lesion affects >2 cm in length of the intestine, the score increases by 1 point per each 1 cm that is damaged.
For all data, descriptive statistics is applied: the arithmetic mean (M) and the standard error of the mean (m) are counted up. The normality of distribution of the values obtained in the course of the experiment was checked with the aid of the Shapiro-Wilk test. […] Distinctions were determined at 5% at a level of confidence.

male balb/c mice = experiment: Open field test, functional state of the central nervous system of mice; type: in vivo; settings: for The number of acts of defecation within 15 minutes: control 0.2 ± 0.1; for The number of washes within 15 minutes (grooming): control 8.0 ± 1.5; for Number of standing up on hind legs in 15 minutes (vertical activity): control 67.1 ± 3.5; for Number of squares crossed within 15 minutes (horizontal activity): control 443.3 ± 15.6; for General physical activity for 15 minutes: control 518.4 ± 15.3
Description: For the final confirmation of the safety of Compound I at the oral administration, the study of the effect of Compound I on the functional state of the central nervous system of mice in the open field test was carried out. “Open field” test consists in the evaluation of motor and research activities, orientation reaction and emotional reactivity in the registration of spontaneous behaviour of animals. The study was carried out according to the standard technique (Buresh Y, Bureshova O., Joseph P. Houston. Methods and main experiments to study the brain and behavior (Moscow, 1991, pp. 119-122).
The study was carried out on male balb/c mice, the individual weight of which deviates from the mean value within the sex of no more than ±10%.
Compound I was administered once, intragastrically. The evaluation of the effect on the central nervous system was carried out 2 hours after the administration of Compound I in the study of the approximate research behaviour of mice in the “open field”. The experimental “open field” facility was a chamber of 100×100×60 cm in size, with a square floor and white walls. The floor of the chamber is divided into 16 squares, in each square there is the round orifice having 6 cm in diameter. The chamber is illuminated by the incandescent electric lamp having a power of 100 watts, located at a height of 1 m from the floor of the chamber. The animal was placed in one of the corners of the chamber and for 15 minutes the number of horizontal squares crossed by it (horizontal activity), getting up on its hind legs (vertical activity), washing (grooming), and defecation by the number of fecal balls were recorded. Then the total motor activity was calculated, the activity was calculated as the sum of the crossed horizontal squares, standing on the hind legs and washing.
The obtained data were checked using the Grubb's test for the presence of the largest or smallest abnormal observation (ejection) in the sample. Values determined “to be eliminated” in this test were not used for further assay. For all data, descriptive statistics was used: a mean value (M) and standard error of the mean value (m) were counted up. The normality of distribution of the values obtained in the course of the experiment was checked with the aid of the Kolmogorov-Smirnov test. In the case of normal distribution, Student's t-test (t-test) was used to evaluate the inter-group distinctions. In the case of the distribution that is other than the normal one the Kruskalll-Wallis test with Dann's post hoc test was used for the comparison of several groups. Distinctions were determined at 5% at a level of confidence.

[2] = 0.75 mg/kg intragastrically 2 hours prior
[3] = 1.5 mg/kg intragastrically 2 hours prior
[4] = 2.5 mg/kg intragastrically 2 hours prior
[5] = 5 mg/kg intragastrically 2 hours prior
[6] = 10 mg/kg intragastrically 2 hours prior
[7] = 20 mg/kg intragastrically 2 hours prior
[8] = 30 mg/kg intragastrically 2 hours prior

T1 sequence (Q7Z2W7 whole entry): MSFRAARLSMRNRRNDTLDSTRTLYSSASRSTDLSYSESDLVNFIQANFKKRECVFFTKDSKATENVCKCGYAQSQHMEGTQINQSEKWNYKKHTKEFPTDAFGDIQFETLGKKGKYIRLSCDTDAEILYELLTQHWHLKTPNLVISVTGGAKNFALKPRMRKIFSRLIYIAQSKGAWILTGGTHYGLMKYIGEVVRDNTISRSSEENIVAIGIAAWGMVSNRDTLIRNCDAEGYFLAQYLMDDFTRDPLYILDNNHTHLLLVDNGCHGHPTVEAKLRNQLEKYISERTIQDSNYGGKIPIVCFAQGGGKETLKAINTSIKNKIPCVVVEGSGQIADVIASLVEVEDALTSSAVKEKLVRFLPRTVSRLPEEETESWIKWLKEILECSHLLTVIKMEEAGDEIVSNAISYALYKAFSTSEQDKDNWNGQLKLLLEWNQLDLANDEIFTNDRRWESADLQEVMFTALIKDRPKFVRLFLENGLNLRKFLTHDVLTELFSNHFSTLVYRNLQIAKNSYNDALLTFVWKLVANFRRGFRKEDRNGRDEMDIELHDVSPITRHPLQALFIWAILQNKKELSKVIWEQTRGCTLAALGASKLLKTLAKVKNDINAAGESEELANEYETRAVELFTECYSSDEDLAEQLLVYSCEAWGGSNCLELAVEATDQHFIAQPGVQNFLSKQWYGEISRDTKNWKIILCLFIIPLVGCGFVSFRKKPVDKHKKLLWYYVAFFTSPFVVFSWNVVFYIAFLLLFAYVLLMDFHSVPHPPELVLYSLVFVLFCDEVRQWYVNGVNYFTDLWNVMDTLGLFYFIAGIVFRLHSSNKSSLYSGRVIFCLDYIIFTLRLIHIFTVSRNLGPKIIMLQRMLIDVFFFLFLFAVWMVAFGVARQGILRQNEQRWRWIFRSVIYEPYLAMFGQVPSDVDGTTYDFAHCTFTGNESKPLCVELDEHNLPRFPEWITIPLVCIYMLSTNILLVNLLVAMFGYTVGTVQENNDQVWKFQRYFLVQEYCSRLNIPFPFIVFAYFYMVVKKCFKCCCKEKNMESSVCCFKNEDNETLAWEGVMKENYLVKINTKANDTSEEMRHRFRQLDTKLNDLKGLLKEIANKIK
Chain of recombinant human delta opioid receptor (P41143 whole entry): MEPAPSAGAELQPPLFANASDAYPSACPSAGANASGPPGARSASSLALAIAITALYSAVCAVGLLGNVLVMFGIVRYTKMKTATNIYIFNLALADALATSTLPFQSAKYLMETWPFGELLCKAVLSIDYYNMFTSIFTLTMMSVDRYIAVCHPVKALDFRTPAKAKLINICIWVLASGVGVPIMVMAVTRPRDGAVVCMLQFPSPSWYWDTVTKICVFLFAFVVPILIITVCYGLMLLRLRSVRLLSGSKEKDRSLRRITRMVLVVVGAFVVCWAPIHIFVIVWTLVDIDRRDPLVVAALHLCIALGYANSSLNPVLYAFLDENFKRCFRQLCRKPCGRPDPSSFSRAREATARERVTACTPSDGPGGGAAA

O=C(Cc1ccc(O)cc1)N[C@@H](Cc1ccccc1)C(=O)NCCc1ccccc1 [Compound I, 2-phenylethylamide N-(p-hydroxyphenylacetyl)phenylalanine]
IC50 [1]: 64 µM | IC50 (TRPM8 ion channel): 62 µM | The degree of colon wall damage (female balb/c mice; 10 mg/kg, 1, 25 and 49 hours after oxazolone): 2.20 ± 0.96 points | The degree of colon wall damage (female balb/c mice; 20 mg/kg intragastrically 1, 25 and 49 hours after oxazolone): 0.00 ± 0.00& points | The number of acts of defecation within 15 minutes (male balb/c mice; [2]): 0.2 ± 0.1 | The number of washes within 15 minutes (grooming) (male balb/c mice; [2]): 7.2 ± 1.4 | Number of standing up on hind legs in 15 minutes (vertical activity) (male balb/c mice; [2]): 69.9 ± 4.3 | Number of squares crossed within 15 minutes (horizontal activity) (male balb/c mice; [2]): 468.5 ± 13.0 | General physical activity for 15 minutes (male balb/c mice; [2]): 545.6 ± 16.5 | The number of acts of defecation within 15 minutes (male balb/c mice; [3]): 1.6 ± 0.6 | The number of washes within 15 minutes (grooming) (male balb/c mice; [3]): 8.5 ± 1.6 | Number of standing up on hind legs in 15 minutes (vertical activity) (male balb/c mice; [3]): 63.0 ± 4.2 | Number of squares crossed within 15 minutes (horizontal activity) (male balb/c mice; [3]): 414.2 ± 24.1 | General physical activity for 15 minutes (male balb/c mice; [3]): 485.7 ± 24.8 | The number of acts of defecation within 15 minutes (male balb/c mice; [4]): 0.0 ± 0.0 | The number of washes within 15 minutes (grooming) (male balb/c mice; [4]): 8.6 ± 1.6 | Number of standing up on hind legs in 15 minutes (vertical activity) (male balb/c mice; [4]): 72.8 ± 3.5 | Number of squares crossed within 15 minutes (horizontal activity) (male balb/c mice; [4]): 459.5 ± 19.0 | General physical activity for 15 minutes (male balb/c mice; [4]): 540.9 ± 18.0 | The number of acts of defecation within 15 minutes (male balb/c mice; [5]): 1.5 ± 0.2 | The number of washes within 15 minutes (grooming) (male balb/c mice; [5]): 2.3 ± 1.0 | Number of standing up on hind legs in 15 minutes (vertical activity) (male balb/c mice; [5]): 71.7 ± 4.4 | Number of squares crossed within 15 minutes (horizontal activity) (male balb/c mice; [5]): 480.6 ± 22.1 | General physical activity for 15 minutes (male balb/c mice; [5]): 554.6 ± 23.9 | The number of acts of defecation within 15 minutes (male balb/c mice; [6]): 0.0 ± 0.0 | The number of washes within 15 minutes (grooming) (male balb/c mice; [6]): 6.8 ± 1.3 | Number of standing up on hind legs in 15 minutes (vertical activity) (male balb/c mice; [6]): 66.1 ± 3.3 | Number of squares crossed within 15 minutes (horizontal activity) (male balb/c mice; [6]): 449.2 ± 15.6 | General physical activity for 15 minutes (male balb/c mice; [6]): 522.1 ± 16.5 | The number of acts of defecation within 15 minutes (male balb/c mice; [7]): 0.0 ± 0.0 | The number of washes within 15 minutes (grooming) (male balb/c mice; [7]): 6.2 ± 1.3 | Number of standing up on hind legs in 15 minutes (vertical activity) (male balb/c mice; [7]): 64.9 ± 4.0 | Number of squares crossed within 15 minutes (horizontal activity) (male balb/c mice; [7]): 479.4 ± 29.3 | General physical activity for 15 minutes (male balb/c mice; [7]): 545.5 ± 30.4 | The number of acts of defecation within 15 minutes (male balb/c mice; [8]): 0.0 ± 0.0 | The number of washes within 15 minutes (grooming) (male balb/c mice; [8]): 5.9 ± 1.4 | Number of standing up on hind legs in 15 minutes (vertical activity) (male balb/c mice; [8]): 69.0 ± 3.8 | Number of squares crossed within 15 minutes (horizontal activity) (male balb/c mice; [8]): 448.4 ± 16.4 | General physical activity for 15 minutes (male balb/c mice; [8]): 523.3 ± 16.6 | Toxic influence on approximate-research behaviour in the open field test (male balb/c mice; intragastric administration, 0.75-30 mg/kg, no statistically significant differences to control): did not have the toxic influence
